Assays:
infection of leaves = format: in vivo; settings: lettuce every 10 days, foliar; chemical compound 25 grams, extract 5 grams
[1] = system: infected leaves and fruits; format: in vivo; settings: strawberry every 10 days, foliar; chemical compound 25 grams, extract 5 grams
leaf infection = format: in vivo, tomato; settings: tomatoes every week, foliar; chemical compound 25 grams, extract 5 grams
mildew = assay: Specific microorganism extracts and chemical compounds, grape mildew (Table II); format: in vivo, grapes
sigatoka = assay: Specific microorganism extracts and chemical compounds, banana sigatoka (Table II); format: in vivo
infection of fruits = format: in vivo; settings: blueberry every 15 days, foliar; chemical compound 25 grams, extract 5 grams
fire blight [2] = assay: Specific microorganism extracts and chemical compounds, apple fire blight burn (Table II); format: in vivo, apples
early & late blight = format: in vivo; settings: potatoes 4 times during season, foliar; chemical compound 25 grams, extract 5 grams
Foliar Infections = format: in vivo; settings: strawberry plant, chemical compound 1.5 kg per acre, extract 5 grams per acre, once a week
nematode = assay: Resistance induction in strawberry plant, root infection (Table I A); settings: in vivo
Fire Blight [3] = assay: Resistance induction in apple trees against fire blight (Table I B); settings: in vivo
foliar infection = format: in vivo; settings: tomato plants, chemical compound 1.5 kg per acre, extract 5 grams per acre, every 10 days
phytopthora [4] = format: in vivo; settings: tomato plants, chemical compound 1.5 kg per acre, extract 5 grams per acre, every 10 days
nematodes [5] = assay: Resistance induction in tomato plants, nematodes (Table I C); settings: in vivo
Black Sigatoka [6] = assay: Resistance induction in bananas against Black Sigatoka (Table I D); parameters: species or system banana; settings: in vivo
Nematodes [7] = assay: Resistance induction in bananas against nematodes (Table I D); parameters: species or system banana; settings: in vivo
[8] = Growth effect, citrus (Table III); format: in vivo; settings: foliar, 4 times in 1 year, chemical compound 3 kg, extract 5 grams
Protocol: (§1) These chemical compounds were tested at rates 0.25 to 3 kg per acre of citrus, strawberries, tomatoes and bananas by themselves to measure (A) fertilizer effect on foliar uptake, (B) growth effect, (C) resistance induction effect. These compounds were then combined with extracts of pseudomonas, subtilis species and actinomyces and applied to the similar set of plants and measured for A, B, and C as above. These extracts were also applied to a similar set of plants and measured for A, B, and C as above.

die back = assay: Induction of resistance, citrus die back (Table III); format: in vivo; settings: foliar, 4 times in 1 year, chemical compound 3 kg, extract 5 grams
Protocol: as §1

phytopthora [9] = assay: Induction of resistance, citrus phytopthora in roots (Table III); format: in vivo; settings: foliar, 4 times in 1 year, chemical compound 3 kg, extract 5 grams
Protocol: as §1

[10] = Growth effect, strawberry (Table III); format: in vivo; settings: every 10 days, chemical compound 3 kg, extract 5 grams
Protocol: as §1

leaf disease = assay: Induction of resistance, strawberry leaf disease (Table III); format: in vivo; settings: every 10 days, chemical compound 3 kg, extract 5 grams
Protocol: as §1

[11] = Growth effect, tomatoes (Table III); format: in vivo; settings: every 10 days, foliar, chemical compound 3 kg, extract 5 grams
Protocol: as §1

leaf disease, botrylis = assay: Induction of resistance, tomato leaf infection (Table III); format: in vivo; settings: tomatoes, every 10 days, foliar; chemical compound 3 kg, extract 5 grams
Protocol: as §1

phytopthora [12] = assay: Induction of resistance, tomato phytopthora in roots (Table III); format: in vivo; settings: tomatoes, every 10 days, foliar; chemical compound 3 kg, extract 5 grams
Protocol: as §1

[13] = Growth effect, bananas (Table III); format: in vivo; settings: every week, foliar, for 6 months, chemical compound 3 kg, extract 5 grams
Protocol: as §1

Black Sigatoka [14] = assay: Induction of resistance, banana Sigatoka (Table III); format: in vivo; settings: bananas, every week, foliar, for 6 months; chemical compound 3 kg, extract 5 grams
Protocol: as §1

[15] = bananas every week for 6 months, foliar, chemical compound 25 grams alone

Compound: O=C([O-])CC(O)(CC(=O)[O-])C(=O)[O-].O=C([O-])CC(O)(CC(=O)[O-])C(=O)[O-].[Ca+2].[Ca+2].[Ca+2] [calcium citrate]
- infection of leaves (infection of leaves): 90% infection
- infected leaves [1]: 80% infection
- infected leaves / leaf infection (leaf infection): 85% infection
- mildew (mildew; in vivo): 55% mildew
- infection (sigatoka, leaves) (sigatoka; in vivo): 85% infection-all leaves except youngest 3
- infection-all leaves except youngest (number of youngest leaves) (sigatoka; in vivo): 85% infection-all leaves except youngest 3
- infection of fruits (infection of fruits): 30% infection of fruits
- fire blight burn (leaves) (fire blight [2]; in vivo): 20% fire blight burn
- infected leaves (early & late blight) (early & late blight): 25% leaf infection

Compound: O=P(O)(O)O [potassium phosphate]
- Results in Foliar Infections (Foliar Infections): 20% infection
- Results in Root Infection (nematode infection) (nematode): 20% nematode infection
- Results On Development of Fire Blight (Fire Blight [3]): 18% fire blight
- Results In Foliar & Root Infections: foliar infection (foliar infection): 15% foliar infection, 15% phytopthora, 20% nematrode
- Results In Foliar & Root Infections: phytopthora (phytopthora [4]): 15% foliar infection, 15% phytopthora, 20% nematrode
- Results In Foliar & Root Infections: nematode (nematodes [5]): 15% foliar infection, 15% phytopthora, 20% nematrode
- Results On Black Sigatoka: Leaves at Flowering (Black Sigatoka [6]): 7 Leaves at Flowering, High Nematode infection
- Results On Nematode Infection (Nematodes [7]): 7 Leaves at Flowering, High Nematode infection

Compound: O=[N+]([O-])[O-].O=[N+]([O-])[O-].[Ca+2] [calcium nitrate]
- Results in Foliar Infections (Foliar Infections): 20% infection
- Results in Root Infection (nematode infection) (nematode): 20% nematode infection
- Results On Development of Fire Blight (Fire Blight [3]): 20% fire blight
- Results In Foliar & Root Infections: foliar infection (foliar infection): 15% foliar infection, 15% phytopthora, 20% nematrode
- Results In Foliar & Root Infections: phytopthora (phytopthora [4]): 15% foliar infection, 15% phytopthora, 20% nematrode
- Results In Foliar & Root Infections: nematode (nematodes [5]): 15% foliar infection, 15% phytopthora, 20% nematrode
- Results On Black Sigatoka: Leaves at Flowering (Black Sigatoka [6]): 7 Leaves at Flowering, High Nematode infection
- Results On Nematode Infection (Nematodes [7]): 7 Leaves at Flowering, High Nematode infection

Compound: potassium phosphite
- infection of leaves (infection of leaves): 85% infection
- infected leaves [1]: 85% infection
- infected leaves / leaf infection (leaf infection): 100% infection
- mildew (mildew; grapes every 15 days, foliar, chemical compound 25 grams, extract 5 grams): 70% mildew
- infection (sigatoka, leaves) (sigatoka; [15]): 90%
- infection-all leaves except youngest (number of youngest leaves) (sigatoka; [15]): 4
- infection of fruits (infection of fruits): 35% infection of fruits
- fire blight burn (leaves) (fire blight [2]; apples (2 yr old) 10 days post bud break & 1 week later, foliar, chemical compound 25 grams, extract 5 grams): 25% fire blight burn
- infected leaves (early & late blight) (early & late blight): 35% leaf infection
- Growth effect [8]: zero improvement
- Induction of Resistance: die back (die back): die back as usual
- Induction of Resistance: phytopthora in roots (phytopthora [9]): zero resistance to phytopthora,
- Growth effect [10]: no increase
- Induction of Resistance: leaf disease, infection (leaf disease): suppression, 25% infection
- Growth effect [11]: no increase
- Induction of Resistance: leaf infection (leaf disease, botrylis): 35% leaf infection
- Induction of Resistance: phytopthora in roots (phytopthora [12]): phytopthora zero control,
- Growth effect [13]: no increase
- Induction of Resistance: Sigatoka control, leaves with no symptoms (Black Sigatoka [14]): only 4 youngest leaves

From US20070142227A1, “Systemic inducer composition for plants” (priority 2003, published 2007)
